Results from paper PMC6027146, “Synthesis and Structure-Activity Relationships of (−)-cis-N-Normetazocine-Based LP1 Derivatives” (Pharmaceuticals, 2018).

Assays:
[1] = test system: DOR; set-up: method as in PMID 22100511; conditions: 10 nM; cited from earlier work
[2] = target: T1, recombinant human DOR (Homo sapiens, UniProt P41143); experiment: Calcium mobilization assay, CHO-DOR cells expressing GαqG66Di5; format: cell-based
T1 construct: expressed in transfected cells; supplied by Dr. Eva Varga (University of Arizona); infected with a retrovirus for GαqG66Di5
T1 sequence (P41143 whole entry): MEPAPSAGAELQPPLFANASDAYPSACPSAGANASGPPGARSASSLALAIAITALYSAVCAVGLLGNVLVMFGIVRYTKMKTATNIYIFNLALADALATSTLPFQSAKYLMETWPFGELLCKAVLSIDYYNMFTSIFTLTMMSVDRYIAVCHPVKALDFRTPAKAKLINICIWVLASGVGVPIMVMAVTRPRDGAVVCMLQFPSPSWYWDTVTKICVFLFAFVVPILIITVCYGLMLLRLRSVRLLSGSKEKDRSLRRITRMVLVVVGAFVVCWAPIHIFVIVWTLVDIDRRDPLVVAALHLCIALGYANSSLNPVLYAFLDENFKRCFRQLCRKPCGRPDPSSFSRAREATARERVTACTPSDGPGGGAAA
Description: (§1) The pharmacological characterization of LP1 derivatives 2 and 10–16 was performed by calcium mobilization assay (Table 2). This procedure was preliminarily validated through a series of experiments where the effects of DPDPE, dermorphin, and dynorphin A were assessed in CHO cells expressing the human recombinant opioid receptors and Gαqi5 or GαqG66Di5 chimeric proteins.
(§2) Chinese hamster ovary (CHO) cells expressing the recombinant human MOR and KOR (CHO^MOR and CHO^KOR) were kindly provided by Dr. Larry Toll (SRI International, Menlo Park, CA, USA), and CHO cells expressing the recombinant human DOR (CHO^DOR) were supplied by Dr. Eva Varga (Department of Medical Pharmacology, The University of Arizona, Tucson, AZ, USA). CHO cells lines permanently coexpressing the opioid receptors and the C-terminally modified Gαqi5 were prepared by infecting the CHO lines described above with a recombinant retrovirus expressing the chimeric α subunit and the hygromycin resistance gene. Similarly, CHO cells lines permanently coexpressing DOR and the C-terminally modified GαqG66Di5 were prepared by infecting the CHO lines described above with a recombinant retrovirus expressing the chimeric α subunit and the hygromycin resistance gene. Polyclonal cell lines were generated using the pantropic retroviral expression system form BD-Clontech, as described previously. Stable lines were selected under hygromycin B (100 μg/mL) and geneticin (600 μg/mL) for 2–3 weeks after the infection.
(§3) CHO cells, expressing human opioid receptors and the Gαqi5 protein, and CHODOR, expressing the GαqG66Di5 protein, were maintained in culture medium consisting of Dulbecco minimum essential medium (DMEM) and Ham F-12 (1:1) (50/50) supplemented with 10% fetal calf serum (FCS), L-glutamine (2 mM), geneticin (200 μg/mL; G418), hygromycin B (100 μg/mL) at 37 °C in 5% CO2 humidified air. When confluence was reached (3–4 days), cells were subcultured as required using trypsin/EDTA, and used for experimentation. The different cell lines were seeded at a density of […] into black 96-well, clear-bottomed plates. After 24 h incubation, the cells were loaded with medium supplemented with 2.5 mM probenecid, 3 μM of the calcium sensitive fluorescent dye Fluo-4 AM, and 0.01% pluronic acid, for 30 min at 37 °C. Afterwards, the loading solution was aspirated and 100 μL/well of assay buffer—HBSS supplemented with 20 mM HEPES, 2.5 mM probenecid and 500 μM Brilliant Black (Aldrich, St. Louis, MO, USA)—was added. Serial dilutions of ligands for experimental use were made in HBSS/HEPES (20 mM) buffer (containing 0.005% BSA fraction V). After placing both plates (cell culture and compound plate) into the FlexStation II (Molecular Device, Union City, San Jose, CA 94587, USA), fluorescence changes were measured at room temperature. Online additions were carried out in a volume of 50 μL/well. Antagonists were incubated 15 min before the addition of the agonist. Maximum change in fluorescence, expressed in percent of baseline fluorescence, was used to determine agonist response.
(§4) Analysis of the binding data was performed using the Origin 7.5 software (OriginLab Corporation, Northampton, MA, USA). In calcium mobilization experiments, data were analyzed by non-linear curve fitting equation, using GraphPad 5.0 software. […] Ligand efficacy was expressed as intrinsic activity (α), calculated as the ratio between the Emax of the ligand and that of the respective standards. Calcium mobilization data were expressed as FIU (fluorescence intensity units) in percent, over the baseline. Agonist potencies are given as pEC50 (the negative logarithm to base 10 of the molar concentration of an agonist that produces 50% of the maximal possible effect, Emax). Concentration response curves to agonists were fitted with the following equation: Effect = baseline + (Emax − baseline)/(1+10^(LogEC50 − X) ∗ HillSlope) where X is the agonist concentration. […]

[3] = target: human-KOR (Homo sapiens, UniProt P41145); experiment: Calcium mobilization assay, CHO-KOR cells expressing Gαqi5; format: cell-based; set-up: expressed in transfected cells; gift of Dr. Larry Toll (SRI International); infected with a retrovirus for Gαqi5; conditions: agonist mode; Inactive = inactive at 10 μM; crc incomplete = incomplete concentration response curve at 10 μM; listed as LP1 (1)
human-KOR, sequence (P41145 whole entry): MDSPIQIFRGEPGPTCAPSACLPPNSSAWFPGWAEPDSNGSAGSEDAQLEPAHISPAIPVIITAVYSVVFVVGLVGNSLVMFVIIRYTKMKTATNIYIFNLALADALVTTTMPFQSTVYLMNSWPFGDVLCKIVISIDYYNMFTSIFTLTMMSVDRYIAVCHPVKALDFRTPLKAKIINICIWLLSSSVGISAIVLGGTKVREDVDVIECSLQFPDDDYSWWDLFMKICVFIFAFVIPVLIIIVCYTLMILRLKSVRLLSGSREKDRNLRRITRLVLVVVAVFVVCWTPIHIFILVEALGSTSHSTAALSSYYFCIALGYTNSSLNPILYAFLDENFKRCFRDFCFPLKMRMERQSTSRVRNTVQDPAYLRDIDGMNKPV
Description: as §1, §2, §3, §4

[4] = target: T2, recombinant human MOR (Homo sapiens, UniProt P35372); experiment: Calcium mobilization assay, CHO-MOR cells expressing Gαqi5; format: cell-based
T2 construct: expressed in transfected cells; gift of Dr. Larry Toll (SRI International); infected with a retrovirus for Gαqi5
T2 sequence (P35372 whole entry): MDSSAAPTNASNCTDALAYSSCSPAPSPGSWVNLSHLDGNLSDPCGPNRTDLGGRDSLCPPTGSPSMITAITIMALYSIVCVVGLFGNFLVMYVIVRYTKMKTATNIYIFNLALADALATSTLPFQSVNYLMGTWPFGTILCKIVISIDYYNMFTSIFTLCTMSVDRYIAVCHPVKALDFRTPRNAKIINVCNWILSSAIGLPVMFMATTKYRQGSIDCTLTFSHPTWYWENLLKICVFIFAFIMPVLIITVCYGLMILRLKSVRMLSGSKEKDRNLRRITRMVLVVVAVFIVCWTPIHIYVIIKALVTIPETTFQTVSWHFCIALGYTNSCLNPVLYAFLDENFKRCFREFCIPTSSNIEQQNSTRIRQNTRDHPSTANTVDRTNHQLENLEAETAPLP
Description: CHO cells, expressing human opioid receptors and the Gαqi5 protein, and CHODOR, expressing the GαqG66Di5 protein, were maintained in culture medium consisting of Dulbecco minimum essential medium (DMEM) and Ham F-12 (1:1) (50/50) supplemented with 10% fetal calf serum (FCS), L-glutamine (2 mM), geneticin (200 μg/mL; G418), hygromycin B (100 μg/mL) at 37 °C in 5% CO2 humidified air. When confluence was reached (3–4 days), cells were subcultured as required using trypsin/EDTA, and used for experimentation. The different cell lines were seeded at a density of 50,000–40,000 cells/well into black 96-well, clear-bottomed plates. […] After placing both plates (cell culture and compound plate) into the FlexStation II (Molecular Device, Union City, San Jose, CA 94587, USA), fluorescence changes were measured at room temperature. […] Maximum change in fluorescence, expressed in percent of baseline fluorescence, was used to determine agonist response.
In calcium mobilization experiments, data were analyzed by non-linear curve fitting equation, using GraphPad 5.0 software. […] Ligand efficacy was expressed as intrinsic activity (α), calculated as the ratio between the Emax of the ligand and that of the respective standards. Calcium mobilization data were expressed as FIU (fluorescence intensity units) in percent, over the baseline. […]

[5] = test system: cells expressing the GαqG66Di5 chimeric protein, but not DOR; experiment: Calcium mobilization in cells expressing the GαqG66Di5 chimeric protein, but not DOR; format: cell-based; conditions: up to 10 μM; data not shown
Text: The LP1 functional profile at DOR, previously in vitro detected by adenylyl cyclase, and the [^35S]GTPγS binding assays was controversial. […] Similar findings with DOR spontaneous activity and effects of DOR antagonists have been previously described. This effect was reversed at higher LP1 concentrations. These [^35S]GTPγS binding results reveal the role of LP1 as a DOR antagonist ligand. […] The DOR antagonist profile of LP1 was also detected in vivo by rat tail flick test. […] The remaining LP1 derivatives 11–16 were not able to stimulate calcium mobilization in CHO^DOR cells stably expressing the GαqG66Di5 protein. […]
CHO cells, expressing human opioid receptors and the Gαqi5 protein, and CHODOR, expressing the GαqG66Di5 protein, were maintained in culture medium consisting of Dulbecco minimum essential medium (DMEM) and Ham F-12 (1:1) (50/50) supplemented with 10% fetal calf serum (FCS), L-glutamine (2 mM), geneticin (200 μg/mL; G418), hygromycin B (100 μg/mL) at 37 °C in 5% CO2 humidified air. […] After placing both plates (cell culture and compound plate) into the FlexStation II (Molecular Device, Union City, San Jose, CA 94587, USA), fluorescence changes were measured at room temperature. […] Maximum change in fluorescence, expressed in percent of baseline fluorescence, was used to determine agonist response.

[6] = test system: DOR; set-up: method as in PMID 20599386; conditions: less potent than DPDPE; cited from earlier work

C[C@H]1[C@H]2Cc3ccc(O)cc3[C@]1(C)CCN2CCC(=O)Nc1ccccc1 [LP1, 3-[(2R,6R,11R)-8-hydroxy-6,11-dimethyl-1,4,5,6-tetrahydro-2,6-methano-3-benzazocin-3(2H)-yl]-N-phenylpropanamide, reference compound]
inhibition of [35S]GTPγS binding [1]: 30% | EC50 [2]: 1.12 µM | functional profile at DOR ([2]; calcium mobilization): partial DOR agonist | KOR pEC50 (CL95%) [3]: crc incomplete ^d | EC50 [4]: 0.0977 µM | intrinsic activity (α) at MOR ([4]; ratio of Emax of ligand to that of the standard): 0.40 ± 0.020 | calcium mobilization in cells without DOR [5]: completely inactive | potency in inhibiting cAMP accumulation relative to DPDPE (fold less potent) [6]: approximately 85 fold
